Entries after “also recorded” stand apart in the source; their conditions may differ.

Data set [1] relates to human SH-SY5Y neuroblastoma cells. The experiment in a line: Differentiation model / neurite length in human neuroblastoma cells. For differentiation / neurite length in comparison to 9-methyl-β-carboline: key: +: marginally better than 9-methyl-β-carboline; ±: equal to 9-methyl-β-carboline; −: marginally worse than 9-methyl-β-carboline. The following applies: 14 days; for neurite length: vs control group, P<0.001; for differentiation / neurite length in comparison to 9-methyl-β-carboline: SH-SY5Y cells. In kind it is cell-based. The source says: Human neuroblastoma cells were utilised for this model. These are permanent cells, which are present as an indifferent type in culture. They can be activated to differentiate, i.e. transformation into neuronal cells, by addition of specific substances such as retinoic acid, […] (BDNF) or activator of the enzyme, protein kinase C to the culture medium. We used this cell system to analyse whether beta-carbolines can transform the indifferent cells into the neuronal type. Criteria were: less proliferation (less cells per field of view); smaller cell bodies (transformation from the indifferent type to the neuronal type); cytodendrites (neuritis), which provide connections to neighbouring cells or clusters of neighbouring cells.
Human SH-SY5Y neuroblastoma cells were incubated in culture for 14 days with solvent (Ko) or test substance. A shift of the graph to the right side for a test substance, pointed to an increase of neurite length, when compared to the graph for the control substance. Statistical differences between the treated groups were calculated with the Tukey's Multiple Comparison-Test.
Shown are the cumulative frequency distributions of neurite lengths, determined in at least 20 randomly selected visual fields (each 640.000 μm^2) in three independent experiments. A steep rise pointed to a predominance of short neuritis, wherein for example in control cells, a less steep rise signified a greater number of longer neurites. The horizontal maximum indicated the maximal neurite length of the respective treatment group. […] The effects are dose- and substance-dependent: 1-methyl-β-carboline <6-methoxy-9-methyl-β-carboline <9-methyl-β-carboline <9-fluorethyl-β-carboline).
The effects of the other inventive β-carbolines (compounds A-L and VI-XX) on neurite length were determined, as described above, in human SH-SY5Y neuroblastoma cells after 14 days.

Data set [2] relates to cerebellin-1 precursor protein (CBLN) in human SH-SY5Y cells. The experiment in a line: Relative gene expression of CBLN (FIG. 4B). In kind it is cell-based. How it is done:
(§1) Next, it was investigated, whether the substances could induce the formation of nerve growth factors in human SH-SY5Y neuroblastoma cell. After 2 and 14 days the cells were harvested and the expression of the target gene and the house keeping gene was determined via reverse transcriptase-PCR.

The test system of another data set is inner ear of guinea pigs. The experiment in a line: Prophylaxis of hearing damages in an animal model, gentamicin and etacrynic acid (Example 30). The following applies: infusion to the round window recess, gentamicin and etacrynic acid i.v. In kind it is in vivo. How it is done:
A solution containing β-carboline was infused continuously into the recess in front of the membrane of the round window of guinea pigs by a osmotic mini-pump for three days. The following β-carbolines were tested individually in this experiment: 9-methyl-β-carboline, compounds XI, XII, XVIII, XIX as well as C to L.
Then, a standard dose of gentamicin and etacrynic acid was injected intravenously into guinea pigs. Gentamicin and etacrynic acid damage the inner ear. Typically, they are used as toxins to induce deafness in such studies. The infusion was continued for further two days. Then, the electrophysiological activity of the nerve cells of the brain stem, which transmit the impulses of the inner ear, was deduced after acoustic irradiation of the ear with […]. The non-β-carboline-treated ear served as intraindividual control (Prieskorn D M, Miller J M. Technical report: chronic and acute intracochlear infusion in rodents. Hear Res, 2000; 140(1-2): 212-215). Moreover, animals were infused with 9-Me-BC only but not with gentamicin as a further control.
The measured electrophysiological activity of the nerve cells of the acoustic nerve (hearing threshold) served as a measure of the degree of therapeutic effect of the used β-carbolines on the inner ear. As can be learned from Table 3, the used β-carbolines show the increase in electrophysiological activity of the nerve cells of the acoustic nerve. It can be concluded from this that β-carbolines are useful for the treatment of hearing damages, vertigo, and vestibular disorders.

The subject of data set [3] is NPY (Neuropeptide Y) in human SH-SY5Y cells. The experiment in a line: Relative gene expression of NPY (FIG. 4E). In kind it is cell-based. The following applies: after 14 days of exposure. How it is done:
as §1

In data set [4] the test system is transcription factor CREB in SH-SY5Y cells. The experiment in a line: Dual luciferase method for intracellular cascades (FIG. 5). The following applies: dose-dependent activating effect, 48 h incubation, three independent experiments. In kind it is cell-based, human. The source says: The effects of β-carbolines on several intracellular cascades were investigated. Of them it is known, that at their respective ends, several transcription factors are formed in the cell nucleus, that in turn activate the transcription of a group of further genes. The dual luciferase method was used. One luciferase served as transfection control, whereas the second is coupled to the appropriate specific binding sequence of the DNA.

Data set [5] deals with BDNF (brain-derived neurotrophic factor) in human SH-SY5Y cells. The experiment in a line: Relative gene expression of BDNF (FIG. 4A). In kind it is cell-based. How it is done: as §1
Details of data set [6]: species or system guinea pigs. To be noted: guinea pig, in vivo. How it is done:
Thus, infusion took place into the middle ear and, therefore, outside the cochlea of the inner ear, whereby the tympanic membrane was not damaged. After three hours, 5 μL of perilymph were obtained from the apex, the tip of the cochlea, i.e. the part of the cochlea distanced most from the membrane of the round window, by a previously implanted cannula. The sample was diluted and was separated immediately by high-pressure liquid chromatography (HPLC) without further processing; and the natural fluorescence of β-carboline was determined by a fluorescence detector. The experiment was repeated with a second guinea pig and identical conditions but the sample was obtained after a 10-hour infusion. […] In a second series, 20 μg of 9-Me-BC were applied into the perilymph straight through the membrane of the round window, i.e. intra-cochlear. After three hours and after 20 hours in case of another animal, perilymph was obtained and analysed as described above. Results are depicted in FIG. 6 together with a calibration series. […] A single maximum, which represents 9-Me-BC, can be seen after 7 minutes in the upper chromatogram of FIG. 6. Clearly, no further maximum is to be seen; thus, 9-Me-BC is not degraded.

Data set [7] concerns organ of Corti of the cochlea of rats. The experiment in a line: Real-time RT-PCR of organ cultures of the organ of Corti (Example 14). In kind it is cell-based. To be noted: 90 μM, 48 hours, rat organ of Corti culture, vs solvent (100%). The procedure: Initially, organ cultures of the organ of Corti of the cochlea of rats were prepared, which were brought into contact with 9-methyl-β-carboline in a next step. Expression of different neurotrophins was measured as a marker of the effects of 9-methyl-β-carboline on the organs or Corti. For this, RNA was isolated from Corti's tissue, transcribed into cDNA, and the concentrations of the cDNAs of the neurotrophins were determined with help of the real-time RT-PCR method.
Organs of Corti of the cochlea of 40 rats were prepared in several sessions on day 4 post partum. […] Amount and quality of the RNA were determined photometrical. […] Real-time reverse transcriptase polymerase chain reaction (real-time RT-PCR) was performed with the LightCycler System of Roche Applied Science, Mannheim, using the fluorescence resonance energy transfer (FRET) method. […] The gen for hydroxymethylbilane synthase (HMBS) was selected as a so-called housekeeping gene for relative quantification. […] The measured fluorescence of each cycle was analysed by the LightCycler Software. […] Quantification was conducted by the 2^−ΔΔC(t) method of Livak and Schmittgen (Livak K J and Schmittgen T D. Analysis of relative gene expression data using real-time quantitative PCR and the 2(-Delta Delta C(T)) Methods 2001; 25:402-8).

`FCCn1c2ccccc2c2ccncc21` [fluorethyl-BC (XIX), 9-(2-fluoroethyl)-9H-β-carboline]: in data set [1] (30, 50 or 70 μM), the neurite length result is “increase in neurite length”. Also, the “differentiation / neurite length in comparison to 9-methyl-β-carboline” value in data set [1] is reported as “+”. The CBLN gene expression entry was “roughly the same stimulation at all investigated concentrations” in data set [2] (after 14 days of exposure) and “increased” in data set [2] (after two days exposure). In the data set on inner ear of guinea pigs, the “effect on the inner ear (electrophysiological activity, hearing threshold) in comparison to 9-methyl-β-carboline” value is recorded as “+”. Besides, in data set [3], the “NPY gene expression, concentration dependence” value is on record as “lower concentrations were more effective than the higher concentrations”. The “formation of the transcription factor CREB relative to the level in control cells” value in data set [4] is reported as “up to ten times”.
`COc1ccc2c(c1)c1ccncc1n2C` [9-Me-6-MeO—BC (XVIII), 6-methoxy-9-methyl-9H-β-carboline]: in data set [1] (50 μM), the neurite length result is given as “increase in neurite length”. In data set [1], the “differentiation / neurite length in comparison to 9-methyl-β-carboline” value is on record as “+”. Further, the “effect on the inner ear (electrophysiological activity, hearing threshold) in comparison to 9-methyl-β-carboline” value in the data set with inner ear of guinea pigs was “±”. In addition, the BDNF transcription entry in data set [5] (SH-SY5Y cells) is on record as “enormous, dose-dependent increase”. In data set [4], the “formation of the transcription factor CREB relative to the level in control cells” value was “up to ten times”.
Consider `Cn1c2ccccc2c2ccncc21` [9-methyl-β-carboline], for which, in data set [6], the “degradation in perilymph (further chromatographic maxima)” value is reported as “not degraded” and the “penetration of the membrane of the round window into the perilymph” value is reported as “penetrates the membrane of the round window”. Further, in data set [1] (70, 90 or 110 μM), the neurite length result is “increase in neurite length”. The “concentration(s) that stimulated BDNF transcription” value in data set [5] (after two days) was 110 µM. In addition, the “NPY gene expression, concentration dependence” value in data set [3] is “lower concentrations were more effective than the higher concentrations”. In data set [4], the “formation of the transcription factor CREB relative to the level in control cells” value was “up to ten times”. Besides, the “generation of neurotrophins Armetl 1, BDNF, Cbln 1, NGF and NPY (transcription)” value in data set [7] was “activated”. Moreover, the “dopaminergic proteins (dopamine receptor subtype 1, tyrosine hydroxylase) transcription” value in data set [7] (listed as 9-Me-BC) is “activates specifically characteristic proteins of dopaminergic nerve cells; also recorded: increasingly activated”.

For the origin of these results see patent US9107914B2, “Beta-carbolines for use in the treatment of hearing loss and vertigo” (AudioCure Pharma GmbH, priority 2009, dated 2015).
